This note sets out measurements from ChEMBL document CHEMBL1155149, “In vitro activities of 15 antimicrobial agents against 110 toxigenic clostridium difficile clinical isolates collected from 1983 to 2004” (2007).

In the assay the test system is Clostridioides difficile. In words: Antimicrobial activity against Clostridium difficile clinical isolates by agar dilution method. The format is functional. In general terms: Agar dilution tests growth on a series of plates holding different concentrations.

Converted amounts (≈) assume the structure as drawn.

Consider `C[C@@H](O)[C@H]1C(=O)N2C(C(=O)O)=C(S[C@@H]3CN[C@H](CNS(N)(=O)=O)C3)[C@H](C)[C@H]12` [DORIPENEM], for which the MIC50 (as a rule, an inhibitory concentration at the 50% level, which refers to growth in some studies and to a panel of isolates in others) is 1 µg/mL (≈ 2.38 µM); the MIC90 (usually the lowest concentration that inhibits either 90% of growth or 90% of the strains tested, depending on the study) turned out to be 2 µg/mL (≈ 4.76 µM).
Taken in the same sequence, the figures for `CN(C)c1cc(NC(=O)CNC(C)(C)C)c(O)c2c1C[C@H]1C[C@H]3[C@H](N(C)C)C(O)=C(C(N)=O)C(=O)[C@@]3(O)C(O)=C1C2=O` [TIGECYCLINE] were 0.125 µg/mL (≈ 0.213 µM) and 0.25 µg/mL (≈ 0.427 µM).
Consider `CCS(=O)(=O)CCn1c([N+](=O)[O-])cnc1C` [TINIDAZOLE], for which the MIC50 stood at 0.125 µg/mL (≈ 0.506 µM) and the MIC90 was 0.25 µg/mL (≈ 1.01 µM).
With `CCc1c(Cl)c(O)c(Cl)c(O)c1C(=O)O[C@H]1[C@H](O)[C@H](OC)[C@H](OC/C2=C\C=C\C[C@H](O)/C(C)=C/[C@H](CC)[C@@H](O[C@@H]3OC(C)(C)[C@@H](OC(=O)C(C)C)[C@H](O)[C@@H]3O)/C(C)=C/C(C)=C/C[C@@H]([C@@H](C)O)OC2=O)O[C@@H]1C` [FIDAXOMICIN], the MIC50 turned out to be 0.125 µg/mL (≈ 0.118 µM) and the MIC90 was determined as 0.125 µg/mL (≈ 0.118 µM).
Compound `CO[C@H]1/C=C/O[C@@]2(C)Oc3c(C)c(O)c4c(O)c(c5c(nc6cc(C)ccn65)c4c3C2=O)NC(=O)/C(C)=C\C=C\[C@H](C)[C@H](O)[C@@H](C)[C@@H](O)[C@@H](C)[C@H](OC(C)=O)[C@@H]1C` [RIFAXIMIN] showed an MIC50 of 0.0075 µg/mL (≈ 0.00954 µM) and an MIC90 of 0.015 µg/mL (≈ 0.0191 µM).
For the compound `COc1c(N2CCNC(C)C2)c(F)cc2c(=O)c(C(=O)O)cn(C3CC3)c12` (stereo unspecified) [GATIFLOXACIN], the MIC50 is 1 µg/mL (≈ 2.66 µM) and the MIC90 is 16 µg/mL (≈ 42.6 µM).
The compound `O=C(Nc1ncc([N+](=O)[O-])s1)c1ccccc1O` [TIZOXANIDE] yielded an MIC50 of 0.06 µg/mL (≈ 0.226 µM) and an MIC90 of 0.125 µg/mL (≈ 0.471 µM).
`C[C@H]1COc2c(N3CCN(C)CC3)c(F)cc3c(=O)c(C(=O)O)cn1c23.C[C@H]1COc2c(N3CCN(C)CC3)c(F)cc3c(=O)c(C(=O)O)cn1c23.O` [LEVOFLOXACIN] had an MIC50 of 4 µg/mL and an MIC90 of 32 µg/mL.
`CC(=O)Oc1ccccc1C(=O)Nc1ncc([N+](=O)[O-])s1` [NITAZOXANIDE] returned an MIC50 of 0.06 µg/mL (≈ 0.195 µM) and an MIC90 of 0.125 µg/mL (≈ 0.407 µM).
`C[C@@H](O)[C@H]1C(=O)N2C(C(=O)O)=C(S[C@@H]3CN[C@H](C(=O)N(C)C)C3)[C@H](C)[C@H]12` [MEROPENEM] had an MIC50 of 2 µg/mL (≈ 5.22 µM) and an MIC90 of 2 µg/mL (≈ 5.22 µM).
As for `CO[C@H]1/C=C/O[C@@]2(C)Oc3c(C)c(O)c4c(=O)c(c5oc6cc(N7CCN(CC(C)C)CC7)cc(O)c6nc-5c4c3C2=O)NC(=O)/C(C)=C\C=C\[C@H](C)[C@H](O)[C@@H](C)[C@@H](O)[C@@H](C)[C@H](OC(C)=O)[C@@H]1C` [RIFALAZIL], the MIC50 was found to be 0.0075 µg/mL (≈ 0.00797 µM) and the MIC90 is 0.03 µg/mL (≈ 0.0319 µM).
Taken in the same sequence, the figures for `Cc1ncc([N+](=O)[O-])n1CCO` [METRONIDAZOLE] were 0.125 µg/mL (≈ 0.73 µM) and 0.25 µg/mL (≈ 1.46 µM).
Taken in the same sequence, the figures for `CN[C@H](CC(C)C)C(=O)N[C@H]1C(=O)N[C@@H](CC(N)=O)C(=O)N[C@H]2C(=O)N[C@H]3C(=O)N[C@H](C(=O)N[C@H](C(=O)O)c4cc(O)cc(O)c4-c4cc3ccc4O)[C@H](O)c3ccc(c(Cl)c3)Oc3cc2cc(c3O[C@@H]2O[C@H](CO)[C@@H](O)[C@H](O)[C@H]2O[C@H]2C[C@](C)(N)[C@H](O)[C@H](C)O2)Oc2ccc(cc2Cl)[C@H]1O` [VANCOMYCIN] were 1 µg/mL (≈ 0.69 µM) and 1 µg/mL (≈ 0.69 µM).
